The source of these data is patent publication US20150141381A1, “TETRACYCLINE COMPOUNDS HAVING TARGET THERAPEUTIC ACTIVITIES” (Paratek Pharmaceuticals, Inc., priority 2001, published 2015).

Each structure is given as a SMILES string.

A short description of one data set: in vitro. It is filed as cell-based. Conditions: African green monkey (COS-1) and Chinese hamster (CHO-K1). As for the experimental part: COS-1 and CHO-K1 cell suspensions were prepared, seeded into 96-well tissue culture treated black-walled microtiter plates (density determined by cell line), and incubated overnight at 37° C., in 5% CO2 and approximately 95% humidity. The following day, serial dilutions of drug were prepared under sterile conditions and transferred to cell plates. Cell/Drug plates were incubated under the above conditions for 24 hours. Following the incubation period, media/drug was aspirated and 50 μl of Resazurin (0.042 mg/ml in PBS w/Ca and Mg) was added. The plates were then incubated under the above conditions for 2 hours and then in the dark at room temperature for an additional 30 minutes. Fluorescence measurements were taken (excitation 535 nm, emission 590 nm).

For data set [1], the system named is MMP-9 production from PMA stimulated THP-1 cells. The data set is described as follows: Assay for MMP-9 Production from PMA Stimulated THP-1 Cells. It is filed as cell-based, human. Particulars: PMA 10 nM, 24 hours, MMP-9 ELISA of conditioned media. As for the experimental part:
Cultures of human monocyte THP-1 cells were suspended at 1×10^6 cells/mL in RPMI-1640 supplemented with 10% FCS. Cell suspensions (90 μL per well) were seeded into 96-well microtiter plates, and incubated for 30 minutes at 37° C., in 5% CO2 and approximately 95% humidity. Serial dilutions of test drug are prepared at 2× final concentration under sterile conditions and 100 μL was transferred to cell plates. Plates were then incubated as above for 15 minutes. PMA (phorbol-12-myristate-13-acetate) was diluted in media to 20× final concentration. 10 μL of diluted PMA was added to the cell plate, resulting in a final concentration of 10 nM. Plates were then incubated again as above for 24 hours. After 24 hours, 100 μL of conditioned media was tested for MMP-9 protein levels using the Quantikine® Human MMP-9 (total) Immunoassay from R&D Systems. MMP-9 levels were calculated based on a standard curve of purified MMP-9 dilution samples run simultaneously in the ELISA plate. This assay detected both the 92 kDa pro- and 82 kDa active forms of MMP-9.
A general note: ELISA stands for enzyme-linked immunosorbent assay.

As a reminder, the IC50 is the concentration at which inhibition is half-maximal. The compound `CN(C)c1ccc(O)c2c1CC1CC3[C@H](N(C)C)C(O)=C(C(N)=O)C(=O)C3(O)C(O)=C1C2=O` (some centres unmarked) [minocycline, Minocycline] came in with an IC50 at 24 h in “in vitro” greater than 25 µg/mL.

Take `CN(C)CCC(=O)c1ccc(O)c2c1C[C@H]1C[C@H]3[C@H](N(C)C)C(O)=C(C(N)=O)C(=O)[C@@]3(O)C(O)=C1C2=O` [drawing 4022]: the “MMP-9 (inhibition of MMP-9 production)” value in data set [1] stood at 3.

`CN(C)[C@@H]1C(O)=C(C(N)=O)C(=O)[C@@]2(O)C(O)=C3C(=O)c4c(O)ccc(N5CCOCC5)c4C[C@H]3C[C@@H]12` [drawing 4289]: in data set [1], the “MMP-9 (inhibition of MMP-9 production)” value is on record as 2.

Consider `CN(C)[C@@H]1C(O)=C(C(N)=O)C(=O)[C@@]2(O)C(O)=C3C(=O)c4c(O)ccc(-c5ccc(NC(=O)c6ccno6)cc5)c4C[C@H]3C[C@@H]12` [drawing 4097], for which the “MMP-9 (inhibition of MMP-9 production)” value in data set [1] amounted to 3.

As to `CC1c2cccc(O)c2C(=O)C2=C(O)C3(O)C(=O)C(C(N)=O)=C(O)C(N(C)C)C3C(O)C21` (centres unmarked) [doxycycline, Doxycycline], the IC50 at 24 h in “in vitro” was greater than 25 µg/mL.
